The experiment is described as follows: Blood glucose level in a diabetic patient (mercy treatment). It counts as in vivo, human. The following applies: Diamicron 80 mg, 2 tablets every morning, before OEGJ. The method, then:
Based on the above-mentioned rationale, the possibility of using OEGJ for the treatment of diabetes was tested in diabetics on the basis of mercy treatment. A person was first diagnosed with diabetes before undergoing hemorrhoid surgery a year before treatment. Their blood glucose level at that time was 24.0 mmol/L. They were put on insulin treatment for a week and started to take diabetes medicine (Diamicron 80 mg, 2 tablets every morning under fasting condition).

The source of these data is patent US9629884B2, “Compositions and methods for increasing lifespan and health span” (GENEREX PHARMACEUTICALS, INC., priority 2009, dated 2017).

With `Cc1ccc(S(=O)(=O)NC(=O)NN2CC3CCCC3C2)cc1` (stereo not shown) [Diamicron], the “average blood glucose level during six-month period on the medication” value is given as 9.97 mmol/L.
